Measured values from ChEMBL document CHEMBL2331358, “Novel agmatine dipeptide inhibitors against the West Nile virus NS2B/NS3 protease: a P3 and N-cap optimization study” (Eur J Med Chem, 2013).

Assay: Inhibition of West Nile virus NS2B-NS3 serine protease using Pyr-RTKR-AMC as substrate incubated for 1 hr prior to substrate addition measured every 45 secs for 1 hr by fluorescence assay

Work on `CC(=O)N[C@@H](CCCCN)C(=O)N[C@@H](CCCCN)C(=O)NCCCCNC(=N)N` yielded an IC50 of 18.2 µM.

With `N=C(N)NCCCCNC(=O)[C@H](CCCCN)NC(=O)[C@H](CCCCN)NC(=O)Cc1cccc(-c2ccccc2)c1` the IC50 was 9.9 µM.

Molecule `N=C(N)NCCCCNC(=O)[C@H](CCCCN)NC(=O)[C@H](Cc1ccc(O)cc1)NCC(=O)c1ccc(-c2ccccc2)cc1` has an IC50 of 33.5 µM.

For `N=C(N)NCCCCNC(=O)[C@H](CCCCN)NC(=O)[C@@H](N)CCCCN`, the IC50 was 38.2 µM.

Work on `CCC(=O)N[C@@H](CCCCN)C(=O)N[C@@H](CCCCN)C(=O)NCCCCNC(=N)N` yielded an IC50 of 19.1 µM.

With `CCCC(=O)N[C@@H](CCCCN)C(=O)N[C@@H](CCCCN)C(=O)NCCCCNC(=N)N` the IC50 was 18.5 µM.

For `CC(C)CC(=O)N[C@@H](CCCCN)C(=O)N[C@@H](CCCCN)C(=O)NCCCCNC(=N)N`, the IC50 was 19.2 µM.

Work on `CC(C)C(=O)N[C@@H](CCCCN)C(=O)N[C@@H](CCCCN)C(=O)NCCCCNC(=N)N` yielded an IC50 of 23.8 µM.

`CC(C)(C)C(=O)N[C@@H](CCCCN)C(=O)N[C@@H](CCCCN)C(=O)NCCCCNC(=N)N` gave an IC50 of 27.1 µM.

`N=C(N)NCCCCNC(=O)[C@H](CCCCN)NC(=O)[C@H](CCCCN)NC(=O)c1ccccc1` showed an IC50 of 38.6 µM.

`N=C(N)NCCCCNC(=O)[C@H](CCCCN)NC(=O)[C@H](CCCCN)NC(=O)c1cccc2ccccc12` gave an IC50 of 33.3 µM.

Work on `N=C(N)NCCCCNC(=O)[C@H](CCCCN)NC(=O)[C@H](CCCCN)NC(=O)c1ccc2ccccc2c1` yielded an IC50 of 32.5 µM.

Work on `N=C(N)NCCCCNC(=O)[C@H](CCCCN)NC(=O)[C@H](CCCCN)NC(=O)Cc1ccccc1` yielded an IC50 of 8.5 µM.

`N=C(N)NCCCCNC(=O)[C@H](CCCCN)NC(=O)[C@H](CCCCN)NC(=O)CCc1ccccc1` showed an IC50 of 42.2 µM.

`N=C(N)NCCCCNC(=O)[C@H](CCCCN)NC(=O)[C@H](CCCCN)NC(=O)CCCc1ccccc1` gave an IC50 of 11.2 µM.

Molecule `N=C(N)NCCCCNC(=O)[C@H](CCCCN)NC(=O)[C@H](CCCCN)NC(=O)Cc1ccccc1Cl` has an IC50 of 2.6 µM.

With `N=C(N)NCCCCNC(=O)[C@H](CCCCN)NC(=O)[C@H](CCCCN)NC(=O)Cc1cccc(Cl)c1` the IC50 was 9.6 µM.

With `N=C(N)NCCCCNC(=O)[C@H](CCCCN)NC(=O)[C@H](CCCCN)NC(=O)Cc1ccc(Cl)cc1` the IC50 was 4.8 µM.

In the case of `Cc1ccccc1CC(=O)N[C@@H](CCCCN)C(=O)N[C@@H](CCCCN)C(=O)NCCCCNC(=N)N`, the IC50 is reported as 6.8 µM.

`Cc1cccc(CC(=O)N[C@@H](CCCCN)C(=O)N[C@@H](CCCCN)C(=O)NCCCCNC(=N)N)c1` showed an IC50 of 9.2 µM.

`Cc1ccc(CC(=O)N[C@@H](CCCCN)C(=O)N[C@@H](CCCCN)C(=O)NCCCCNC(=N)N)cc1` showed an IC50 of 6.9 µM.

With `N=C(N)NCCCCNC(=O)[C@H](CCCCN)NC(=O)[C@@H](CCCCN)NCC(=O)c1ccc(-c2ccccc2)cc1` the IC50 was > 100 µM.

In the case of `N=C(N)NCCCCNC(=O)[C@H](CCCCN)NC(=O)CNCC(=O)c1ccc(-c2ccccc2)cc1`, the IC50 is reported as > 100 µM.

`C[C@H](NCC(=O)c1ccc(-c2ccccc2)cc1)C(=O)N[C@@H](CCCCN)C(=O)NCCCCNC(=N)N` gave an IC50 of 53.7 µM.

With `CC(C)[C@H](NCC(=O)c1ccc(-c2ccccc2)cc1)C(=O)N[C@@H](CCCCN)C(=O)NCCCCNC(=N)N` the IC50 was > 100 µM.

For `CC(C)C[C@H](NCC(=O)c1ccc(-c2ccccc2)cc1)C(=O)N[C@@H](CCCCN)C(=O)NCCCCNC(=N)N`, the IC50 was > 100 µM.

`CCCC[C@H](NCC(=O)c1ccc(-c2ccccc2)cc1)C(=O)N[C@@H](CCCCN)C(=O)NCCCCNC(=N)N` gave an IC50 of 47.9 µM.

For `N=C(N)NCCCCNC(=O)[C@H](CCCCN)NC(=O)[C@@H]1CCCN1CC(=O)c1ccc(-c2ccccc2)cc1`, the IC50 was > 100 µM.

In the case of `N=C(N)NCCCCNC(=O)[C@H](CCCCN)NC(=O)[C@H](CC(N)=O)NCC(=O)c1ccc(-c2ccccc2)cc1`, the IC50 is reported as > 100 µM.

For `N=C(N)NCCCCNC(=O)[C@H](CCCCN)NC(=O)[C@H](CCC(N)=O)NCC(=O)c1ccc(-c2ccccc2)cc1`, the IC50 was > 100 µM.

With `N=C(N)NCCCCNC(=O)[C@H](CCCCN)NC(=O)[C@H](CO)NCC(=O)c1ccc(-c2ccccc2)cc1` the IC50 was > 100 µM.

For `N=C(N)NCCCCNC(=O)[C@H](CCCCN)NC(=O)[C@H](CC(=O)O)NCC(=O)c1ccc(-c2ccccc2)cc1`, the IC50 was > 100 µM.

With `N=C(N)NCCCCNC(=O)[C@H](CCCCN)NC(=O)[C@H](CCC(=O)O)NCC(=O)c1ccc(-c2ccccc2)cc1` the IC50 was > 100 µM.

In the case of `N=C(N)NCCCCNC(=O)[C@H](CCCCN)NC(=O)[C@H](CCCNC(=N)N)NCC(=O)c1ccc(-c2ccccc2)cc1`, the IC50 is reported as 19.1 µM.

For `N=C(N)NCCCCNC(=O)[C@H](CCCCN)NC(=O)[C@H](Cc1cnc[nH]1)NCC(=O)c1ccc(-c2ccccc2)cc1`, the IC50 was > 100 µM.

In the case of `N=C(N)NCCCCNC(=O)[C@H](CCCCN)NC(=O)[C@H](Cc1ccccc1)NCC(=O)c1ccc(-c2ccccc2)cc1`, the IC50 is reported as 44.5 µM.

In the case of `N=C(N)NCCCCNC(=O)[C@H](CCCCN)NC(=O)[C@H](CCCCN)NCC(=O)c1ccc(-c2ccccc2)cc1`, the IC50 is reported as 4.7 µM.

For `CC(=O)N[C@@H](CCCCN)C(=O)NCCCCNC(=N)N`, the IC50 was > 100 µM.
